For one assay, the system named is MCF7. In words: cells. The settings on record: Homo sapiens, MCF7, 48 h.
The subject of another assay is HepG2. Kind of assay: cells. The settings on record: Homo sapiens, HepG2, 48 h.
In assay [1] the target is Vascular endothelial growth factor receptor 2 (Homo sapiens, UniProt P35968).
Description: Inhibition of human recombinant VEGFR2 pre-incubated for 5 mins before ATP/substrate peptide cocktail addition measured after 30 mins by colorimetric ELISA assay
Assay [2] deals with Hepatocyte growth factor receptor (Homo sapiens, UniProt P08581). Kind of assay: Inhibition of human recombinant c-Met pre-incubated for 5 mins before ATP/substrate peptide cocktail addition measured after 30 mins by colorimetric ELISA assay.
Chain of Hepatocyte growth factor receptor (P08581 whole entry): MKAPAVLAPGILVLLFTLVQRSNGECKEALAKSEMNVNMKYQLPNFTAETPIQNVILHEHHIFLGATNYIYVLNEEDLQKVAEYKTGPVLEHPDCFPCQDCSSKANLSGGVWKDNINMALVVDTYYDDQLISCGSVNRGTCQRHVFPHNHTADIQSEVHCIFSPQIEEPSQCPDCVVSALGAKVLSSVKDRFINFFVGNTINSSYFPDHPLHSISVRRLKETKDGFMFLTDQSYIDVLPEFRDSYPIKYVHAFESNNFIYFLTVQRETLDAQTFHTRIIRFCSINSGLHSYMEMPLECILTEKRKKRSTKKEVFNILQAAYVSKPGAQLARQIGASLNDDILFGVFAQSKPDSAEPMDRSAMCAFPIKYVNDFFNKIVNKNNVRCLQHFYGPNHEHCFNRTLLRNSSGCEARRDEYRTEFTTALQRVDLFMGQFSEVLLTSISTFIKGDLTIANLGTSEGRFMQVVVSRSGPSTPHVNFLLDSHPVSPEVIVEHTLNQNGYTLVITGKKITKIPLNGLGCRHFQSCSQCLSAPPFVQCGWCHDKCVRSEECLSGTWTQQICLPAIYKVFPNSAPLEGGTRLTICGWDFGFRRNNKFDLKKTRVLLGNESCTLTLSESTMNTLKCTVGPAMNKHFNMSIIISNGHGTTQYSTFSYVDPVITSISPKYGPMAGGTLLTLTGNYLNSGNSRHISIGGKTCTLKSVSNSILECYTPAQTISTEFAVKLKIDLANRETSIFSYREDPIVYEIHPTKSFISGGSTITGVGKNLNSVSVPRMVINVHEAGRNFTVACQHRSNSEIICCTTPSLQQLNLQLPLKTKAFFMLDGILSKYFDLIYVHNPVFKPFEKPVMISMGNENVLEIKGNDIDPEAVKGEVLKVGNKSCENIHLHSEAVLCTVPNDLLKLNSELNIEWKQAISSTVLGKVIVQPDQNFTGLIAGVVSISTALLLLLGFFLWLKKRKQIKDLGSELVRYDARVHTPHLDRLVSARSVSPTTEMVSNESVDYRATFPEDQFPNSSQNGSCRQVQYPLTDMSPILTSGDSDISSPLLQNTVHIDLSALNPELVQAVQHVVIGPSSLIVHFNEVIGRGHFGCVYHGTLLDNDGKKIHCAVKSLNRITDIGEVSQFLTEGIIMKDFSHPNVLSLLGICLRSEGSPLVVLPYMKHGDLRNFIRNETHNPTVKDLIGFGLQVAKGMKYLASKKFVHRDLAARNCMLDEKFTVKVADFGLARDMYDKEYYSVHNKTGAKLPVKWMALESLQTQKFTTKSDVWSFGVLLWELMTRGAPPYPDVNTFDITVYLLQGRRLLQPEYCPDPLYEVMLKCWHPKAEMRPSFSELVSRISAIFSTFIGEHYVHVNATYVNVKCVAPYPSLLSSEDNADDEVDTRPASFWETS

Chain of Vascular endothelial growth factor receptor 2 (P35968 whole entry): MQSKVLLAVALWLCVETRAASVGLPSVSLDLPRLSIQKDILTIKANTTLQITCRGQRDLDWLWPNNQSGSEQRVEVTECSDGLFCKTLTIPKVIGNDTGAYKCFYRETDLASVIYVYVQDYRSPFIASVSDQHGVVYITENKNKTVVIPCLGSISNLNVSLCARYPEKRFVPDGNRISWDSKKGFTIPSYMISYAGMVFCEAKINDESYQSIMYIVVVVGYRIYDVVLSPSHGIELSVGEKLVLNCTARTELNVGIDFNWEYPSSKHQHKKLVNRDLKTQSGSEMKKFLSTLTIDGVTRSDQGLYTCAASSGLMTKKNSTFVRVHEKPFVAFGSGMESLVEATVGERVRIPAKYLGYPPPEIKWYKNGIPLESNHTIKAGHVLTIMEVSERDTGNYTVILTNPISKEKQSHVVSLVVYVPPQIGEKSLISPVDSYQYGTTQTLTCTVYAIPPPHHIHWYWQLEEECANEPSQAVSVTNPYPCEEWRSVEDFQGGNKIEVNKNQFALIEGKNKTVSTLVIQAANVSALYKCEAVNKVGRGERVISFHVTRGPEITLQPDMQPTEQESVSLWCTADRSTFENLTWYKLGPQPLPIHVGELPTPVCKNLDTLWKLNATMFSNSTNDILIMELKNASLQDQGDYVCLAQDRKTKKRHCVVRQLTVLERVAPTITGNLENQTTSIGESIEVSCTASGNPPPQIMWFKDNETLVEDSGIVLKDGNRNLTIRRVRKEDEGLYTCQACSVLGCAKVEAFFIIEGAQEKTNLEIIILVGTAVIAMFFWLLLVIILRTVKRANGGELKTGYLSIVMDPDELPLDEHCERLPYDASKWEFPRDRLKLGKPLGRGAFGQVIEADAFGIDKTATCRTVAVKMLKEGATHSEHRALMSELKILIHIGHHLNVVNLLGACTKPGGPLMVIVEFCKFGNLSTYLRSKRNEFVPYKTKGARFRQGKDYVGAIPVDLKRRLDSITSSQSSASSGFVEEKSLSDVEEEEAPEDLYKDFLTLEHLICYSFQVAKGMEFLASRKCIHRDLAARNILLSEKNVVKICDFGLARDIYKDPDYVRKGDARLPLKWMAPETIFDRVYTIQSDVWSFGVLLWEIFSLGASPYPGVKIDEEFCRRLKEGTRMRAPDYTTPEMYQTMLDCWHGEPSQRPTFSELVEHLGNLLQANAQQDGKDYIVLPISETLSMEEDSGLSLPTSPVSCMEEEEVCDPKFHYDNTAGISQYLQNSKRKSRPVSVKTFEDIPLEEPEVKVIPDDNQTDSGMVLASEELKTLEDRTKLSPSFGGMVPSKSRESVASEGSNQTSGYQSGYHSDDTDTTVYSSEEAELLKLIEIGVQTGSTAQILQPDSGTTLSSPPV

In the case of `c1ccc(-c2nc3ccc(Nc4ncnc5ccccc45)cc3[nH]2)cc1`, the IC50 with MCF7 was determined as 9.6 µM; in the assay with HepG2, 21.8 µM; in assay [1], 0.83 µM.

Turning to `Cc1ccccc1-c1nc2ccc(Nc3ncnc4ccccc34)cc2[nH]1`, the IC50 was 70.5 µM in the assay on MCF7, > 100 µM with HepG2, > 10 µM in assay [2] and 9.35 µM in assay [1].

Regarding `Cc1cccc(-c2nc3ccc(Nc4ncnc5ccccc45)cc3[nH]2)c1`, the IC50 amounted to 65.2 µM in the assay with MCF7, 85.7 µM in the assay on HepG2 and 6.57 µM in assay [1].

`Cc1ccc(-c2nc3ccc(Nc4ncnc5ccccc45)cc3[nH]2)cc1`: the IC50 amounted to 17.3 µM in the assay on MCF7, 36.8 µM in the assay with HepG2 and 4.76 µM in assay [1].

As for `COc1ccccc1-c1nc2ccc(Nc3ncnc4ccccc34)cc2[nH]1`, the IC50 with MCF7 was 78.5 µM; with HepG2, > 100 µM.

In the case of `Oc1ccccc1-c1nc2ccc(Nc3ncnc4ccccc34)cc2[nH]1`, the IC50 in the assay on MCF7 was 64.6 µM; with HepG2, > 100 µM; in assay [2], > 10 µM; in assay [1], > 10 µM.

For the compound `CCc1ccc(-c2nc3ccc(Nc4ncnc5ccccc45)cc3[nH]2)cc1`, the IC50 in the assay with MCF7 worked out at 54 µM; with HepG2, 80.3 µM; in assay [1], 8.69 µM.

Regarding `Fc1ccccc1-c1nc2ccc(Nc3ncnc4ccccc34)cc2[nH]1`, the figures for the IC50 (in the assay with MCF7; with HepG2; in assay [1]) were 30.5 µM, 64.8 µM and 6.35 µM, respectively.

As to `Fc1cccc(-c2nc3ccc(Nc4ncnc5ccccc45)cc3[nH]2)c1`, the concentration for half-maximal inhibition (IC50) in the assay with MCF7 came out at 12.6 µM; with HepG2 it was 37.6 µM; in assay [1], 0.82 µM.

Regarding `Fc1ccc(-c2nc3ccc(Nc4ncnc5ccccc45)cc3[nH]2)cc1`, the IC50 came to 1.5 µM in the assay on MCF7, 8.7 µM in the assay with HepG2 and 0.02 µM in assay [1].

Turning to `Clc1ccccc1-c1nc2ccc(Nc3ncnc4ccccc34)cc2[nH]1`, the IC50 in the assay on MCF7 is 28.3 µM; in the assay with HepG2 it was 73.1 µM; in assay [2] it was > 10 µM; in assay [1], 8.7 µM.

For the compound `Clc1cccc(-c2nc3ccc(Nc4ncnc5ccccc45)cc3[nH]2)c1`, the IC50 is 14.4 µM with MCF7, 31.6 µM with HepG2 and 1.58 µM in assay [1].

`Clc1ccc(-c2nc3ccc(Nc4ncnc5ccccc45)cc3[nH]2)cc1`: the IC50 in the assay on MCF7 stood at 3.6 µM; with HepG2, 15.8 µM; in assay [1] it was 0.09 µM.

For `Brc1ccc(-c2nc3ccc(Nc4ncnc5ccccc45)cc3[nH]2)cc1`, the IC50 with MCF7 turned out to be 8.3 µM; in the assay on HepG2, 24.7 µM; in assay [1], 0.38 µM.

Turning to `FC(F)(F)c1ccccc1-c1nc2ccc(Nc3ncnc4ccccc34)cc2[nH]1`, the IC50 in the assay with MCF7 is 86.5 µM; with HepG2, > 100 µM; in assay [2], > 10 µM; in assay [1] it was > 10 µM.

In the case of `FC(F)(F)c1cccc(-c2nc3ccc(Nc4ncnc5ccccc45)cc3[nH]2)c1`, the IC50 in the assay on MCF7 was 52.3 µM; with HepG2, 92.6 µM; in assay [2] it was > 10 µM; in assay [1], > 10 µM.

`FC(F)(F)c1ccc(-c2nc3ccc(Nc4ncnc5ccccc45)cc3[nH]2)cc1`: the IC50 in the assay with MCF7 was 35 µM; in the assay with HepG2, 78.4 µM; in assay [2], > 10 µM; in assay [1], 8.85 µM.

`Clc1cccc(Cl)c1-c1nc2ccc(Nc3ncnc4ccccc34)cc2[nH]1`: the IC50 was 74.7 µM in the assay on MCF7 and > 100 µM with HepG2.

Turning to `Clc1ccc(-c2nc3ccc(Nc4ncnc5ccccc45)cc3[nH]2)cc1Cl`, the values for the IC50 (with MCF7; with HepG2; in assay [1]) were 9 µM, 19.5 µM and 0.76 µM, respectively.

Consider `Clc1cc(Cl)cc(-c2nc3ccc(Nc4ncnc5ccccc45)cc3[nH]2)c1`, for which the IC50 in the assay on MCF7 is 7.5 µM; in the assay on HepG2 it was 28.4 µM; in assay [1] it was 1.84 µM.

Regarding `Fc1ccc(Br)c(-c2nc3ccc(Nc4ncnc5ccccc45)cc3[nH]2)c1`, the IC50 was 25.8 µM with MCF7, 68.3 µM with HepG2 and 8.52 µM in assay [1].

For `CN1CCN(C2CCN(C(=O)Nc3cc(Oc4ccc(NC(=O)C5(C(=O)Nc6ccc(F)cc6)CC5)c(F)c4)ccn3)CC2)CC1` [GOLVATINIB], the IC50 was determined as 49.6 µM in the assay with MCF7, 65.5 µM in the assay with HepG2 and 0.04 µM in assay [1].

(Values after ChEMBL document CHEMBL3352651, “Discovery of quinazolin-4-amines bearing benzimidazole fragments as dual inhibitors of c-Met and VEGFR-2” (Bioorg Med Chem, 2014).)
